# Source: patent US20240366564A1, “Use of Chlorophyll Derivatives for the Treatment of SARS-CoV-2 Infection” (priority 2021, published 2024)
# Columns and labels:
# [1] = test system: SARS-CoV-2 alpha variant (B.1.1.7 lineage); format: cell-based
# [2] = test system: SARS-CoV-2 USA-WA1/2020 virus; format: cell-based
structure (smiles),measurement,setting,value
C=Cc1c(C)c2cc3nc(c4c5[nH]c(cc6nc(cc1[nH]2)C(C)=C6CC)c(C)c5C(=O)[C@@H]4C(=O)OC)[C@@H](CCC(=O)O)[C@@H]3C [Pheophorbide A],effect of photoactivation on inhibition of infection,[1],enhanced with photoactivation
same,inhibition of SARS-CoV-2 infection in culture,[1],significantly inhibits
same,"inhibition of SARS-CoV-2 infection, summary of FIGS. 5-10",[2],inhibits SARS-CoV-2 infection in a dose-dependent manner
